# How the values were obtained:
# [1] = Single-dose pharmacokinetic and metabolic disposition study of [14C]tacrine HCl in human male volunteers; type: in vivo; conditions: for mean cumulative fecal recovery of 14C activity / mean cumulative urinary recovery of 14C activity / mean total recovery: 5760 min
# Description: Plasma and red blood cells (RBC) were collected predose and for 48 hours postdose. Urine and feces were collected predose and for 96 hours postdose. Urine and plasma samples were analyzed directly by liquid scintillation spectrometry while RBC and fecal samples were solubilized prior to counting. […] Metabolic profiling of urine was performed by HPLC radioactivity detection. Metabolites were identified by HPLC/photodiode array/mass spectrometry.
# [2] = Clinical drug interaction study, tacrine with cimetidine; type: in vivo, human; conditions: 40 mg tacrine with 300-mg four times a day cimetidine vs tacrine alone
# From the text: A. Somogyi and M. Muirhead, "Pharmacokinetic Interactions of Cimetidine", CLIN. PHARMACOKIN., Vol. 12, pp. 321-366 (1987).
# [3] = cited from earlier work
compound,measurement,setting,value
"Cl.Nc1c2c(nc3ccccc13)CCCC2.O [Tacrine, 1,2,3,4-tetrahydro-9-acridinamine monohydrate monohydrochloride]","Mean AUC(O-tldc) for tacrine, 1-, 2-, and 4-hydroxytacrine as part of total mean plasma radioactivity AUC(O-tldc)",[1]; 10 mg oral,approximately 3%
same,"Mean AUC(O-tldc) for tacrine, 1-, 2-, and 4-hydroxytacrine as part of total mean plasma radioactivity AUC(O-tldc)",[1]; 40 mg oral,~4%
same,mean cumulative fecal recovery of 14C activity,[1]; 10-mg oral,23.2 % of dose
same,mean cumulative urinary recovery of 14C activity,[1]; 10-mg oral,56.5 % of dose
same,mean total recovery,[1]; 10-mg oral,79.4%
same,"mean plasma total radioactivity AUC(O-tldc), dose proportionality",[1]; 10 and 40 mg oral,increased in a dose proportional manner
same,"mean AUC(O-tldc), dose proportionality","[1]; 10 and 40 mg oral, plasma",increased greater than dose proportionally
same,difference in metabolic profiles between dose levels,"[1]; 10 vs 40 mg, urine",No apparent differences
same,mean cumulative fecal recovery of 14C activity,[1]; 40-mg oral,20.8%
same,mean cumulative urinary recovery of 14C activity,[1]; 40-mg oral,54.1%
same,mean total recovery,[1]; 40-mg oral,74.9%
same,Tmax,"[1]; human, plasma, po, read-out: Time to maximum plasma concentration (tmax)",~2 h
same,"polar radioactive components, of urinary radioactivity",[1]; urine through 24 hours,67%
same,unchanged drug excreted in urine,[1]; urine through 24 hours,only trace amounts of unchanged drug excreted
same,higher plasma concentrations,[2],approximately 40%
same,extent of metabolism,[3]; animals and man,extensively metabolized
same,formation of THA metabolites in serum,[3]; patients given THA,very rapid formation of THA metabolites
same,liver enzymes after administration,[3]; patients,elevations of liver enzymes are found in some patients

# Source: patent US5422350A, “Nitrogen substituted acridine and cytochrome P450 inhibitors and methods of use” (priority 1992, dated 1995)
